The values below come from ChEMBL document CHEMBL1201862, “PubChem BioAssay data set” (2004).

Each structure is given as a SMILES string. Calls of active or inactive are those of the source. Bounds are passed on as bounds.

Experiment [1] in a line: Counterscreen for antagonists of the orexin 1 receptor (OX1R; HCRTR1): Fluorescence-based cell-based high throughput dose response assay to identify antagonists of the parental CHO cell line. [Related pubchem assays (depositor defined):AID434989, AID435008, AID463079, AID485270, AID492963, AID492964, AID492965, AID493232, AID504699, AID504701]. Format: functional. (Counterscreens check selectivity or assay interference.)

Another experiment addresses Beta Lactamase (Pseudomonas aeruginosa, UniProt Q932Y6). The experiment in a line: BLA reporter interference, concentration series – BLA reporter cells, FRET fluorescence, artefact control for TLR9-MyD88 binding inhibitor project, dose response (AID 588341).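 Note: cell based assay in CHO-K1 cells stably expressing beta-lactamase.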 It is filed as cell-based.
Experiment [2] deals with T1, Orexin receptor type 2 (Homo sapiens, UniProt O43614).
T1 sequence (O43614 whole entry): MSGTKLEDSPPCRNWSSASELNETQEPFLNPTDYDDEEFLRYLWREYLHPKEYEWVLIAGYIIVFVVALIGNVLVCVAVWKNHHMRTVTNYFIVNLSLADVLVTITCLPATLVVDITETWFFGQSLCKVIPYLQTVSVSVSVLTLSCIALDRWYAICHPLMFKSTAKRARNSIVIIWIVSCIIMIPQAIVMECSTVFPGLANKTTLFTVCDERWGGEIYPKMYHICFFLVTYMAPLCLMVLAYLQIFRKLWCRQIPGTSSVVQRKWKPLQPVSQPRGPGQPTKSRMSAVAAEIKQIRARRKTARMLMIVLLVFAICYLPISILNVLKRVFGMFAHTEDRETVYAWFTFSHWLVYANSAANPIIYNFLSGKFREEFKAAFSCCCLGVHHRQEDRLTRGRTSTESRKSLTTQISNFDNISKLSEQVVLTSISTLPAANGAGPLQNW
Briefly: Counterscreen assay for antagonists of the orexin 1 receptor (OX1R; HCRTR1): Fluorescence-based cell-based dose response assay for antagonists of the orexin 2 receptor (OX2R; HCRTR2), run by assay provider. It is filed as functional.

In experiment [3] the target is T2, Orexin/Hypocretin receptor type 1 (Homo sapiens, UniProt O43613).
T2 sequence (O43613 whole entry): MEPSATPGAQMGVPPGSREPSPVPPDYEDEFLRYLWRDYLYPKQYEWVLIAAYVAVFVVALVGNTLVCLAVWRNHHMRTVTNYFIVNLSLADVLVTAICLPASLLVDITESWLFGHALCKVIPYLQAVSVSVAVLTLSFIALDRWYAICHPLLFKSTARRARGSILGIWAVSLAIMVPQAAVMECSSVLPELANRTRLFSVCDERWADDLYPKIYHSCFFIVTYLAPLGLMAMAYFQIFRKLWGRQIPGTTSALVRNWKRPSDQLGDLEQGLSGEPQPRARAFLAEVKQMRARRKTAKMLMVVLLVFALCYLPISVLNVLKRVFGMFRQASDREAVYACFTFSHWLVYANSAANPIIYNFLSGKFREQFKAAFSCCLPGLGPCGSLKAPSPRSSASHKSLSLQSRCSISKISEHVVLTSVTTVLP
Briefly: Homogeneous Time Resolved Fluorescence (HTRF)-based cell-based high throughput dose response assay for antagonists of the orexin 1 receptor (OX1R; HCRTR1). [Related pubchem assays (depositor defined):AID434989, AID435008, AID463079, AID485270, AID492963, AID492964, AID492965, AID493232, AID504717, AID504718]. Format: functional. Background: Time-resolved FRET reads energy transfer from a long-lived donor to a nearby acceptor.

The nature of experiment [4]: DRD fibroblast viability loss – cell-based, non-viral oncogenic, luminescence, dose response (AID 1934). The note with it: Homo sapiens. It is filed as functional.
The target in experiment [5] is T1, Orexin receptor type 2. Briefly: Counterscreen assay for antagonists of the orexin 1 receptor (OX1R; HCRTR1): Homogeneous Time Resolved Fluorescence (HTRF)-based cell-based dose response assay for antagonists of the orexin 2 receptor (OX2R; HCRTR2), run by assay provider. It is filed as functional.
For another experiment, the system named is CHO-K1. The experiment in a line: Counterscreen for antagonists of the orexin 1 receptor (OX1R; HCRTR1): Homogeneous time resolved fluorescence (HTRF)-based cell-based dose response assay to identify antagonists of the parental CHO-K1 cell line. [Related pubchem assays (depositor defined):AID434989, AID435008, AID463079, AID485270, AID492963, AID492964, AID492965, AID493232, AID504699, AID504701]. It is filed as functional. The note with it: Cricetulus griseus.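 Note: potency for inhibition of ATP-stimulated IP1 production as antagonists.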

The subject of experiment [6] is BJ. The experiment in a line: BJ-TERT fibroblast viability loss – cell-based, RAS-independent, luminescence, dose response (AID 1933). It is filed as functional. The note with it: Homo sapiens.
For experiment [7], the target named is T2, Orexin/Hypocretin receptor type 1. The experiment in a line: Fluorescence-based cell-based high throughput dose response assay for antagonists of the orexin 1 receptor (OX1R; HCRTR1). [Related pubchem assays (depositor defined):AID434989, AID435008, AID463079, AID485270, AID492963, AID492964, AID492965, AID493232, AID504717, AID504718]. It is filed as functional.

The subject of another experiment is CHO. The experiment in a line: CHO cell viability loss, potency – luminescence, cytotoxicity control for TLR9-MyD88 binding inhibitor project, dose response (AID 588339).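 Note: CHO cells stably coexpressing TLR9 and MyD88 fusions from primary screen; compound exposure lasted 48 hours before viability readout.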 Format: functional, cell-based, hamster. The note with it: Cricetulus griseus.
Experiment [8] has as its system BJ. The experiment in a line: cells. The note with it: Homo sapiens. Format: functional, cell-based.
A short description of experiment [9]: reduced cellular PGC1a acetyl-lysine signal – cell-based, cherry-picked samples, dose response (AID 720514).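 Note: potency may reflect raised or lowered acetylation signal.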 It is filed as functional.
Experiment [10] has as its target Protein disulfide-isomerase (Homo sapiens, UniProt P07237). Briefly: inhibition of PDI-driven insulin aggregation – biochemical, turbidity, absorbance, cherry-picked samples, dose response (AID 602350). It is filed as functional.
The target of a further experiment is Aurora kinase A (Homo sapiens, UniProt O14965). Format: functional.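 Note: value from the Navigating the Kinome kinase panel profiling, panel entry STK6.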
Chain of Aurora kinase A (O14965 whole entry): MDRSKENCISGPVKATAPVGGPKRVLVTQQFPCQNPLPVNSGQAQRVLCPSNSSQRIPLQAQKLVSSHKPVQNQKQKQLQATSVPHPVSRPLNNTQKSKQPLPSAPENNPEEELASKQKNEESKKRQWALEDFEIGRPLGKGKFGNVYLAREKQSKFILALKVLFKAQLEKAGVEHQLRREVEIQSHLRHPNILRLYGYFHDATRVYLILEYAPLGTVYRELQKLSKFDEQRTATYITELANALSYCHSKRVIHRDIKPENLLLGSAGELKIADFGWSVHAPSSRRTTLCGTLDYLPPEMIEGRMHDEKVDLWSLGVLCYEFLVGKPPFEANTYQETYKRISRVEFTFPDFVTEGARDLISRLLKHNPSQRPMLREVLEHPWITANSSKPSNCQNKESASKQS
For the next experiment, the target named is Aurora kinase B (Homo sapiens, UniProt Q96GD4). It is filed as functional.
A short description of experiment [11]: cAMP pathway inhibition in counterscreen cell line – TR-FRET cAMP detection, counter-screen for MC4R biased antagonist project, dose response (AID 602305).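 Note: U2OS cells stimulated with forskolin near its EC80 as the cAMP inducer; potency is for inhibition of forskolin-stimulated cAMP signaling.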 It is filed as functional, cell-based.
The next experiment addresses T3, Coagulation factor XII (Homo sapiens, UniProt P00748).
T3 sequence (P00748 whole entry): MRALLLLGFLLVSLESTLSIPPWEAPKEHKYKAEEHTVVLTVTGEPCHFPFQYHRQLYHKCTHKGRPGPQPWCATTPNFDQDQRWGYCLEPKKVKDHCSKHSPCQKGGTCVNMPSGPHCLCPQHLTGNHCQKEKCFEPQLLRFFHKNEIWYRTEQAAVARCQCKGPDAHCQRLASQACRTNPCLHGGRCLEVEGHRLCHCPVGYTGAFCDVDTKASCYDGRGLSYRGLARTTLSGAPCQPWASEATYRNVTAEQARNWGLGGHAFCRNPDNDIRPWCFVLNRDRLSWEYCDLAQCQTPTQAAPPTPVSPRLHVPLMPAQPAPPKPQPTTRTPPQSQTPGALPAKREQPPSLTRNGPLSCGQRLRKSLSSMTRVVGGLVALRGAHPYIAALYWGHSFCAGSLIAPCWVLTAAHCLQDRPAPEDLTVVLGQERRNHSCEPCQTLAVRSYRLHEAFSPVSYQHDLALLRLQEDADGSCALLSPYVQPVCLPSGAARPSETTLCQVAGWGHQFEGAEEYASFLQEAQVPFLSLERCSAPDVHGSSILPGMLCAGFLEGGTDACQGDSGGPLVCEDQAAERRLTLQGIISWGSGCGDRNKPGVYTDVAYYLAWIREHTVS
Format: functional.

For the next experiment, the target named is Melanocortin receptor 4 (Homo sapiens, UniProt P32245). The experiment in a line: inhibitors of MC4R cAMP signaling – cell-based, TR-FRET, biased antagonists, dose response (AID 602298).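 Note: antagonist potency against agonist-stimulated cAMP production.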 It is filed as functional.
Chain of Melanocortin receptor 4 (P32245 whole entry): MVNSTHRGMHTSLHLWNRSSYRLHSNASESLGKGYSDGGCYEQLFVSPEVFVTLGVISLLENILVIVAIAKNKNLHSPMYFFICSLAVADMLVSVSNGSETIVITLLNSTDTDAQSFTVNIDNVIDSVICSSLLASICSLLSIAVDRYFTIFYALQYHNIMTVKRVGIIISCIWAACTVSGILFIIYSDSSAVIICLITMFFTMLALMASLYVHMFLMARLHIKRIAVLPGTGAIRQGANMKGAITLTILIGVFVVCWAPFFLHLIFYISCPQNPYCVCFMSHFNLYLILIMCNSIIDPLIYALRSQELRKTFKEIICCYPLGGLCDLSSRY
The nature of experiment [12]: blockers of CAL PDZ–TMR peptide complex – biochemical, fluorescence polarization, untagged CAL PDZ, cherry-pick, set 2, dose response (AID 602254). It is filed as functional.
Experiment [13] in a line: viability loss of HPDE-C7K cells – cell-based, fluorescence, HTS, primary screen (AID 431). It is filed as functional. Particulars: Homo sapiens.
In the next experiment the target is Paired box protein Pax-8 (Homo sapiens, UniProt Q06710). The experiment in a line: PAX8 transcriptional activity inhibition in RMG-I – RMG-I cells, luciferase, cherry-pick, dose response (AID 687027).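 Note: luciferase reporter driven by Pax8 target thyroperoxidase promoter measured by SteadyGlo luminescence.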 Format: functional, cell-based.
Experiment [14] in a line: HPDE-C7 pancreatic duct cell viability loss – fluorescence, HTS (AID 430). It is filed as functional, cell-based. The note with it: Homo sapiens.
Experiment [15] has as its target Ras and Rab interactor 1/Tyrosine-protein kinase ABL1 (Homo sapiens, UniProt P00519+Q13671). Format: functional.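 Note: biochemical TR-FRET dose-response test measuring inhibition of binding between Rin1 and Abl proteins.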
Experiment [16] addresses ALK tyrosine kinase receptor (Homo sapiens, UniProt Q9UM73). Format: functional.
Experiment [17] has as its target T4, High affinity choline transporter 1 (Homo sapiens, UniProt Q9GZV3).
T4 sequence (Q9GZV3 whole entry): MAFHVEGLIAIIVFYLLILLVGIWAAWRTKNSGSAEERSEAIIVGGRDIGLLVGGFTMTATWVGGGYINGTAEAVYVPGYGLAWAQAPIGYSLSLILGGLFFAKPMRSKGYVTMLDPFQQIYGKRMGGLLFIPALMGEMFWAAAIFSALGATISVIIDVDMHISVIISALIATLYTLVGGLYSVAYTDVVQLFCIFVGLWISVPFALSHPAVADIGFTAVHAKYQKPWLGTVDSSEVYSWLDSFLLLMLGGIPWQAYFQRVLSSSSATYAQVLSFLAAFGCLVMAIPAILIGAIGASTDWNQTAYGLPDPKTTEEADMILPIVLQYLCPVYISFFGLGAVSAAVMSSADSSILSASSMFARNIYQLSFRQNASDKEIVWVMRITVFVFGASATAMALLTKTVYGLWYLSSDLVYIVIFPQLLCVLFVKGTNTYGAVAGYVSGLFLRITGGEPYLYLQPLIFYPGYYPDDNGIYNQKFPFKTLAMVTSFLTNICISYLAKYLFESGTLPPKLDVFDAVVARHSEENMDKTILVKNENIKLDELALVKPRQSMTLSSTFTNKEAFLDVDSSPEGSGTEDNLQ
Briefly: human choline transporter blockers, potency – cell-based, 10-point CRC, membrane potential dye, dose response (AID 588401).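 Note: membrane potential dye fluorescence of choline-evoked depolarization via CHT.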 Format: functional.

Experiment [18] concerns the target T4, High affinity choline transporter 1. Briefly: human choline transporter blockers, potency – cell-based, 5-point CRC, membrane potential dye, dose response (AID 504840). Format: functional.

One may read the IC50 as the point on the concentration scale where inhibition reaches its midpoint. As usually defined, the EC50 is the concentration giving half of the maximal effect. By AC50 is commonly meant the concentration at which the activity in the assay is half-maximal. As a reminder, the Ki is a measure of affinity in units of concentration, obtained from inhibition or displacement.

Chain of Protein disulfide-isomerase (P07237 whole entry): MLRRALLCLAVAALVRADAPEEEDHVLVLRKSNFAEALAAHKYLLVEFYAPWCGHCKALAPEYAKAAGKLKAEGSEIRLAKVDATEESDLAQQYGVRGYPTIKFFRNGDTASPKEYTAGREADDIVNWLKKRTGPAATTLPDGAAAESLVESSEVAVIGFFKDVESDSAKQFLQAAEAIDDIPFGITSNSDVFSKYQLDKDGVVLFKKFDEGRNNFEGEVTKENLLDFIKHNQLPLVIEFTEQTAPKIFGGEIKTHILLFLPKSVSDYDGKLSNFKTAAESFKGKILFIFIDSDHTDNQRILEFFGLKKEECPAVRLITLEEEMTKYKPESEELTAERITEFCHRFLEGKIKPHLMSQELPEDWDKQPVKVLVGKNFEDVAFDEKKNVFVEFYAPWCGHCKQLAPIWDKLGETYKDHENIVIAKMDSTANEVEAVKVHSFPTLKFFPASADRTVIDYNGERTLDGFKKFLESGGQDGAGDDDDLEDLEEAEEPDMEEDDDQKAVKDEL
Chain of ALK tyrosine kinase receptor (Q9UM73 whole entry): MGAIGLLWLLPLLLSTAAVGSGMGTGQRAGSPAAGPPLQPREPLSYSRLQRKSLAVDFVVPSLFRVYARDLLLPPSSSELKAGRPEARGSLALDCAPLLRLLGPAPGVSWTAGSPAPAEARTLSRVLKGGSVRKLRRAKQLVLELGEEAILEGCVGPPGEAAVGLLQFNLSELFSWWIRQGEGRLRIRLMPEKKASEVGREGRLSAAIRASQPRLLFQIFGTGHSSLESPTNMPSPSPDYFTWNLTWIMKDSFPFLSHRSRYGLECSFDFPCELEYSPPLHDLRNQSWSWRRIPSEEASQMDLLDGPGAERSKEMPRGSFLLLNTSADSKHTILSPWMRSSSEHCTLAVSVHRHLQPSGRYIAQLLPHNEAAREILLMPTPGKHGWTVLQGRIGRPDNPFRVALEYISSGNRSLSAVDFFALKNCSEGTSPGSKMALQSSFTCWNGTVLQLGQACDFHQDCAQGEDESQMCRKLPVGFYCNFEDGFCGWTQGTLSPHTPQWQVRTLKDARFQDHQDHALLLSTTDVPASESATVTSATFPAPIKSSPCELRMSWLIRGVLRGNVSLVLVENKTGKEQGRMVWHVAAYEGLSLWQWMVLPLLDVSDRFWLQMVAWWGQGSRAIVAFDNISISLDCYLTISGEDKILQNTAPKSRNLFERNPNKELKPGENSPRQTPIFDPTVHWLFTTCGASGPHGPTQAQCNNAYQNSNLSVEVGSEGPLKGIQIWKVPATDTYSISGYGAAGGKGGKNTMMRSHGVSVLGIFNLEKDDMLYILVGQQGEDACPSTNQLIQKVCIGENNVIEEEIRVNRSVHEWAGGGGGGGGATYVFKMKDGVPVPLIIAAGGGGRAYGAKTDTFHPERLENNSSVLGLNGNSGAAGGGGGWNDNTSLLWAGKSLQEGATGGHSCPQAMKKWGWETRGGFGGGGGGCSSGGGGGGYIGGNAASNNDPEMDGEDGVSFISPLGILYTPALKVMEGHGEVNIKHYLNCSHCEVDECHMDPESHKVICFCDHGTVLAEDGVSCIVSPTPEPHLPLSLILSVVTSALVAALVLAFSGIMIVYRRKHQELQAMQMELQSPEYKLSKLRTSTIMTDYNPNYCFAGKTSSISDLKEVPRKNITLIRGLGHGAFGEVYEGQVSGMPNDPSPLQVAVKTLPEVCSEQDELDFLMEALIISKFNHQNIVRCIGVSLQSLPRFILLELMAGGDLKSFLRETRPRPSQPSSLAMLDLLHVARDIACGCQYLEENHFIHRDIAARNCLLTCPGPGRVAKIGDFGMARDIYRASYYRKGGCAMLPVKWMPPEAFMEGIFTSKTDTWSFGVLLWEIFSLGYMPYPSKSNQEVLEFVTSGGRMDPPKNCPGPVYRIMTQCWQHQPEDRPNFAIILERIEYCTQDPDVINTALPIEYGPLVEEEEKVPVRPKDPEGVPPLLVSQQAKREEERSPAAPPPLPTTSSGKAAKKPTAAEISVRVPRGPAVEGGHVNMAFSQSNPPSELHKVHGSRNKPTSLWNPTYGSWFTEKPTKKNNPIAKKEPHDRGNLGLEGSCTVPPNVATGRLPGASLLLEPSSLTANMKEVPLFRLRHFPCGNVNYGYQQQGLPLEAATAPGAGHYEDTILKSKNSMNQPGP
Chain of Ras and Rab interactor 1/Tyrosine-protein kinase ABL1 (P00519 whole entry): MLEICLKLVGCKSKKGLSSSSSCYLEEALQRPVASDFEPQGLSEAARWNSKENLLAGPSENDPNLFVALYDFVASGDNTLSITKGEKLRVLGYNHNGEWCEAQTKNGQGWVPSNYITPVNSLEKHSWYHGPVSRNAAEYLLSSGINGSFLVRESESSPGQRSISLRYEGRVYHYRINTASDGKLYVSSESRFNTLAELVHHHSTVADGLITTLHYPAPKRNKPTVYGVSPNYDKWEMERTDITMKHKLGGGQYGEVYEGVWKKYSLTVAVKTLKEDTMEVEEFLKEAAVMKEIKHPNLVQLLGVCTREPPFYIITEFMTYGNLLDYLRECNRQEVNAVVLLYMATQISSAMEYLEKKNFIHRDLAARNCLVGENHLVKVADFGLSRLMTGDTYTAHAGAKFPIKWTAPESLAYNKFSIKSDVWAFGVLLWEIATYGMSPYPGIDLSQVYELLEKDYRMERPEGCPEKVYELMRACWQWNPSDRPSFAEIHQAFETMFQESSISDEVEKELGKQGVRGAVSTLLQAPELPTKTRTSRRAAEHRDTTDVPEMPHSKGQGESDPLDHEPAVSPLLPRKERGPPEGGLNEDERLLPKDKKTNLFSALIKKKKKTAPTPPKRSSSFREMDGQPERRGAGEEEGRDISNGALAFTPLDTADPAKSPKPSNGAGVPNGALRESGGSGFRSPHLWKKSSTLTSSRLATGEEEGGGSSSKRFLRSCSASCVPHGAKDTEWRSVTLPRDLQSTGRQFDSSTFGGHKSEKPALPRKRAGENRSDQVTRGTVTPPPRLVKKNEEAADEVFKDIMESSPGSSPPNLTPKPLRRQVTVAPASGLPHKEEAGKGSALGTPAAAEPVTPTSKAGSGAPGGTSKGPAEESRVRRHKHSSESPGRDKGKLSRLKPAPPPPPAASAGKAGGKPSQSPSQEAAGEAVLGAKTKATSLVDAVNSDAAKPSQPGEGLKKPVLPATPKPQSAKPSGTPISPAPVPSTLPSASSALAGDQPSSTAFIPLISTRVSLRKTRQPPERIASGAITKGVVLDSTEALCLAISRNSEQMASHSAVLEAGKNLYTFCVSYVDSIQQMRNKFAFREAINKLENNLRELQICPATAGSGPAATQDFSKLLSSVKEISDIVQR
Chain of Ras and Rab interactor 1/Tyrosine-protein kinase ABL1 (Q13671 whole entry): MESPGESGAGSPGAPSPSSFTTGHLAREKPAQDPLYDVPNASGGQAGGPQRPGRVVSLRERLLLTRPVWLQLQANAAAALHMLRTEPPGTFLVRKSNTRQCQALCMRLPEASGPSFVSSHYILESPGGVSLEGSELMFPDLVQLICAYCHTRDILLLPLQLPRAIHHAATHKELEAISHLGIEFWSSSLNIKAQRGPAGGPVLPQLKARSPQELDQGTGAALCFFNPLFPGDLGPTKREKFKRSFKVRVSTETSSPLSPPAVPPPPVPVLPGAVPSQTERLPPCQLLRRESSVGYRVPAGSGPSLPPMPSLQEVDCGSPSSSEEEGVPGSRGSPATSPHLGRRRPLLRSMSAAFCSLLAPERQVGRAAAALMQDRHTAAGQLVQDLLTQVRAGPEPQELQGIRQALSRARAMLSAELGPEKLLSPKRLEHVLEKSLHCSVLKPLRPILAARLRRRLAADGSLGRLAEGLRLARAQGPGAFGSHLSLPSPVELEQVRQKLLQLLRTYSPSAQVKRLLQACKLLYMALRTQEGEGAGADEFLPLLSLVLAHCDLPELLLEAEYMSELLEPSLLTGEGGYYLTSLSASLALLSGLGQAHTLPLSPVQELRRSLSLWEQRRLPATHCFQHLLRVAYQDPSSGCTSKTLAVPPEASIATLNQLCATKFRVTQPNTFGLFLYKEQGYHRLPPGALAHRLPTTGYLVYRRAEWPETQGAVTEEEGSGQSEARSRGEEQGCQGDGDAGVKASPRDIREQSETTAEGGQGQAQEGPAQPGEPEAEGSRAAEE
Chain of Beta Lactamase (Q932Y6 whole entry): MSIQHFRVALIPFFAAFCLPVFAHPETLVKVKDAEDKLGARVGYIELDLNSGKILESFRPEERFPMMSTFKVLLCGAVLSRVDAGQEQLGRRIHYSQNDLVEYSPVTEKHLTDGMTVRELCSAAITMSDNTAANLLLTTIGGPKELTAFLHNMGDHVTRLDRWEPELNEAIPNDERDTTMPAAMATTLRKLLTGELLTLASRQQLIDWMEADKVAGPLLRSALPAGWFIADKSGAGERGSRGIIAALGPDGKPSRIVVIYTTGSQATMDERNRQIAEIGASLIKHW

In the case of `CCN(CC)c1ccc2cc(-c3nc4ccccc4n3C)c(=O)oc2c1`, the IC50 in experiment [1] is > 49.8 µM (inactive); at Beta Lactamase, 2.56 µM (active); at Orexin receptor type 2 [2] it was 32 µM (inactive); in experiment [3], 1.14 µM (active); on Orexin receptor type 2 [5] it was > 50 µM (inactive); with CHO-K1, > 66.2 µM (inactive). The figures for the IC50 (in experiment [7]; in the experiment with CHO) were 1.77 µM (active) and 29.4 µM (inactive), respectively. The EC50 in experiment [4] is 0.185 µM (active); in the experiment with BJ [6], < 0.12 µM (active); with BJ [8], 0.345 µM (active).

Consider `Cn1cnnc1Sc1ccc(/C=C/C(=O)c2ccc(O)cc2)cc1[N+](=O)[O-]`, for which the AC50 was 8.44 µM (active) in experiment [9] and 0.422 µM (active) in experiment [10].

`CCc1cccc(NC(=O)Nc2ccc(-c3c(C)oc4ncnc(N)c34)cc2)c1`: the Ki is 0.158 µM (active) at Aurora kinase A and 0.0158 µM (active) at Aurora kinase B.

For `O=C(Nc1nnc(-c2ccccc2)s1)c1cc(S(=O)(=O)N2CCOCC2)c(Cl)cc1Cl`, the IC50 in [11] was > 64.6 µM (inactive); on Coagulation factor XII, > 50 µM (inactive); at Melanocortin receptor 4, > 2.39 µM (active).

For the molecule `COc1ccccc1N(CCOc1ccccc1)S(=O)(=O)c1ccccc1`, the AC50 in [12] is 77.2 µM (active).

On to `Cc1ccc(S(=O)(=O)CCC(=O)c2ccc(O)cc2O)cc1`, for which the EC50 in experiment [13] is 8.8 µM (active); in [14], 9.12 µM (active). Further, the AC50 was 4.59 µM (active) at Paired box protein Pax-8 and 15.6 µM (active) in [10].

In the case of `COc1cc(C(=O)OCC(=O)Nc2ccc(S(=O)(=O)N3CCCC3)cc2)cc(OC)c1OC`, in experiment [15], the IC50 was 12.4 µM (inactive).

For the molecule `CCc1cccc(NC(=O)Nc2ccc(-c3csc4c(-c5cnn(C)c5)cnc(N)c34)cc2)c1`, the figures for the inhibition constant Ki (in [16]; at Aurora kinase A) were 0.0251 µM (active) and 0.00794 µM (active), respectively.

In the case of `CCOCCn1c(CN2CCN(c3ccc(F)cc3)CC2)nc2c1c(=O)n(C)c(=O)n2C`, the results for the concentration for half-maximal inhibition (IC50) in experiment [17] and in experiment [18] were 4.01 µM (active) and 7.77 µM (active), respectively.
